{"source": "patent US20130071432A1", "about": "(priority 2011, published 2013)", "key": {"VSV": {"test_system": "VSV", "conditions": "mouse, in vivo; cited from earlier work"}, "[1]": {"target": "T1, constitutively active, truncated mutant RNase L(NΔ335) (Homo sapiens, UniProt Q05823)", "T1 sequence (Q05823 336-741 limits assumed)": "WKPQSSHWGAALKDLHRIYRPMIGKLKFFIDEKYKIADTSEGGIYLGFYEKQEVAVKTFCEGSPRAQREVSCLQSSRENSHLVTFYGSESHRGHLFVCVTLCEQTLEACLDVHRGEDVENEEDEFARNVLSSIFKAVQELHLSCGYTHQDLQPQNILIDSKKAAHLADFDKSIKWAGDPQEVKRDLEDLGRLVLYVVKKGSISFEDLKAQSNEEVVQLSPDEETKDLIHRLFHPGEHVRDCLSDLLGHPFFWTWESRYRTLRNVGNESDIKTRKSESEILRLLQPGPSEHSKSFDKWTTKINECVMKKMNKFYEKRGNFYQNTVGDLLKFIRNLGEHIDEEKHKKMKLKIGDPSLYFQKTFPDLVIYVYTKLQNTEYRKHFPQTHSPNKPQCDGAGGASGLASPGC", "test": "biochemical"}, "in vitro [2]": {"test": "in vitro", "conditions": "human, mouse, reduction in cell viability"}, "in vitro [3]": {"test": "in vitro", "conditions": "human"}, "[4]": {"target": "T2, full length RNase L activated by 2-5A (Homo sapiens, UniProt Q05823)", "T2 sequence (Q05823 1-741)": "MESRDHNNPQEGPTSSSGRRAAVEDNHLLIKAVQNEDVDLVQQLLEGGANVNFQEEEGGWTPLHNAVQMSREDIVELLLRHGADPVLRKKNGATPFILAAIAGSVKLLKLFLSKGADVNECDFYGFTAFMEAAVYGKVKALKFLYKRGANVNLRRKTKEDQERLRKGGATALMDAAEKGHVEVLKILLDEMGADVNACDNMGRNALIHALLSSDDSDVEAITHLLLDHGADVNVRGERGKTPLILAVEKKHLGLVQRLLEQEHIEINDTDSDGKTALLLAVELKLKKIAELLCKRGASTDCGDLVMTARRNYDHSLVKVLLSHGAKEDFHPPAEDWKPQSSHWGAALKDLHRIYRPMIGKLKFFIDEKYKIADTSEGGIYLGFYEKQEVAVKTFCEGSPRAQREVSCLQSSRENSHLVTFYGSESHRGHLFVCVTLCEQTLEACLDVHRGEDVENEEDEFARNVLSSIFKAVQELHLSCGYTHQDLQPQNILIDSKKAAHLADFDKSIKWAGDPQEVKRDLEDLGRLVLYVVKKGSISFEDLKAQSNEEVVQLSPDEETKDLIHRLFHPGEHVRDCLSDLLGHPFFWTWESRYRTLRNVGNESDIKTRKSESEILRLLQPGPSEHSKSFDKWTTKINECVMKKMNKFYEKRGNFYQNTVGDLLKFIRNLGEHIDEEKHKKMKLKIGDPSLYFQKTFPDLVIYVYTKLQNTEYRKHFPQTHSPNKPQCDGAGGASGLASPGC", "test": "biochemical"}, "[5]": {"conditions": "in vivo; cited from earlier work"}, "in vitro [6]": {"test": "in vitro", "conditions": "human", "remark": "listed apart in the source"}}}
{"smiles": "O=P1(N(CCCl)CCCl)NCCCO1", "note": "(stereo not shown) [CPA, cyclophosphamide]", "values": [{"measurement": "induction of antiviral antibodies against VSV challenge", "setting": "VSV", "value": "completely suppressed induction of antiviral antibodies"}]}
{"smiles": "CCN(CC)CCNC(=O)c1c(C)[nH]c(/C=C2\\C(=O)Nc3ccc(F)cc32)c1C", "note": "[sunitinib]", "values": [{"measurement": "IC50", "setting": "[1]", "value": 1.4, "unit": "µM"}, {"measurement": "cytotoxicity", "setting": "in vitro [2]", "value": "~20", "unit": "%"}, {"measurement": "cytotoxicity", "setting": "in vitro [3]", "value": 60, "unit": "%"}, {"measurement": "IC50", "setting": "[4]", "value": 1.4, "unit": "µM"}, {"measurement": "serum concentrations", "setting": "[5]", "value": "equivalent to those of patients"}, {"measurement": "cytotoxicity", "setting": "in vitro [6]", "value": 60, "unit": "%"}]}
